According to US20250296960A1, “PEPTIDE COMPOSITIONS AND METHODS OF USE THEREOF” (priority 2022, published 2025):
Entries after “also recorded” stand apart in the source; their conditions may differ. Like-named read-outs stand apart in the source and are kept apart here. Numbered stars: 1 amine (or outer) side, 2 acyl side, 3 side chain; on linkers, the order of the positions; unused ones are H or OH. Square brackets hold non-standard residues; d marks the D form. Side chains are listed from the residue outwards. Peptide text beside a SMILES is read from it. * marks the point of attachment. C18 diacid = O=C(O)CCCCCCCCCCCCCCCCC(=O)*; γGlu = O=C(O)[C@H](CCC(=O)[*:2])N[*:1]; αMeR = C[C@](N)(CCCNC(=N)N)C(=O)O; AEEA = NCCOCCOCC(=O)O; Aib = CC(C)(N)C(=O)O

Legend:
[1] = In vivo efficacy in CDA-HFD (NASH) mice, 4 weeks; conditions: Example 16
Description: This study was conducted to evaluate the efficacy of SEQ ID NOs. […] SEQ ID NOs. The peptides were delivered at 0.02% PS80 in PBS and dosing volume was 10 mL/kg. Control group was administered by vehicle without peptide.
Body weight changes were monitored Q2D; serum chemistry (end); hepatic TG (end); and histological analysis (end). […]

FaSSIF/P = assay: In vitro enzymatic stability against FaSSIF/P (pancreatin in FaSSIF, pH 6.5); format: in vitro ADME
[2] = as above; format: in vitro ADME; conditions: simulated gi fluid, pH 6.5, Half-life (min), FaSSIF/P
human GLP-1R = molecular target: T1, human GLP-1R (Homo sapiens, UniProt P43220); assay: cAMP assay (HitHunter cAMP) in GLP-1R-expressing CHO-K1 cells (GLP-1R+ cells); format: cell-based; conditions: for activity on GLP-1R compared to SEQ ID NO. 77, in words: Example 13; for Ratio vs. GLP-1R, GLP-1R / Relative % to native ligand, GLP-1R: Table 36
T1 construct: host or cells: CHO-K1
T1 sequence (P43220 24-463): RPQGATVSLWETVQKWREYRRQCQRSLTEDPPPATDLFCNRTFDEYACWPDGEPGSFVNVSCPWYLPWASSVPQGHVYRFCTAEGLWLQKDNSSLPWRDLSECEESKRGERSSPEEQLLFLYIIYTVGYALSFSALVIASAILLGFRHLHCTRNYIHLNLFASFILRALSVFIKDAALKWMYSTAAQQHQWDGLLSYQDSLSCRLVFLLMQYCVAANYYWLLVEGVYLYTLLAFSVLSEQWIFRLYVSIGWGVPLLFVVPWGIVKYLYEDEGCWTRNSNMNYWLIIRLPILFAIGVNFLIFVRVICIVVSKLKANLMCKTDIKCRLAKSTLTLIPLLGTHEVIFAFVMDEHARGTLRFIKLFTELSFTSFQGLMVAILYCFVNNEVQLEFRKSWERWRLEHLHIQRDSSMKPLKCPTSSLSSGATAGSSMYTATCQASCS
In short: (§1)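 Luminescent cAMP read-out: after 30 min peptide stimulation at 37 °C in cAMP assay buffer, receptor-expressing CHO-K1 cells (seeded 7×10^3/well the night before) received antibody and detection reagents for 1 h, then Solution A for 3 h, at room temperature in the dark.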

[3] = In vivo efficacy in mAMLN (obese and NASH) mice, 4 weeks; conditions: after 4 weeks
human GIPR = molecular target: T2, human GIPR (Homo sapiens, UniProt P48546); assay: cAMP assay (HitHunter cAMP) in GIPR-expressing CHO-K1 cells (GIPR+ cells); format: cell-based; conditions: for activity on GIPR compared to SEQ ID NO. 77, in words: Example 13; for Ratio vs. GLP-1R, GIPR / Relative % to native ligand, GIPR: Table 36
T2 construct: host or cells: CHO-K1
T2 sequence (P48546 22-466): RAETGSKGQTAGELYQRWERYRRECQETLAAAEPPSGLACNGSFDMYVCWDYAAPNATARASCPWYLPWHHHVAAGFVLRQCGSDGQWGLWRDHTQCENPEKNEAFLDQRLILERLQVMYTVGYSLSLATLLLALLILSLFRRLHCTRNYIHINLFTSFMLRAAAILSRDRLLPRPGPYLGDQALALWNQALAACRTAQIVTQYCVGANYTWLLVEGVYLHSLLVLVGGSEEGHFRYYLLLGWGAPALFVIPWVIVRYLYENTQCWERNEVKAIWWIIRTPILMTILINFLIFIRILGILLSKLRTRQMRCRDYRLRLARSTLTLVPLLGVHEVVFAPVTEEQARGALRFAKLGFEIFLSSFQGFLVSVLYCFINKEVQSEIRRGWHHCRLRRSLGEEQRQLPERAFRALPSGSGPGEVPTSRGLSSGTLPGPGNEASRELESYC
In short: as §1

human GCGR = molecular target: T3, human GCGR (Homo sapiens, UniProt P47871); assay: cAMP assay (HitHunter cAMP) in GCGR-expressing CHO-K1 cells (GCGR+ cells); format: cell-based; conditions: Table 36
T3 construct: host or cells: CHO-K1
T3 sequence (P47871 26-477): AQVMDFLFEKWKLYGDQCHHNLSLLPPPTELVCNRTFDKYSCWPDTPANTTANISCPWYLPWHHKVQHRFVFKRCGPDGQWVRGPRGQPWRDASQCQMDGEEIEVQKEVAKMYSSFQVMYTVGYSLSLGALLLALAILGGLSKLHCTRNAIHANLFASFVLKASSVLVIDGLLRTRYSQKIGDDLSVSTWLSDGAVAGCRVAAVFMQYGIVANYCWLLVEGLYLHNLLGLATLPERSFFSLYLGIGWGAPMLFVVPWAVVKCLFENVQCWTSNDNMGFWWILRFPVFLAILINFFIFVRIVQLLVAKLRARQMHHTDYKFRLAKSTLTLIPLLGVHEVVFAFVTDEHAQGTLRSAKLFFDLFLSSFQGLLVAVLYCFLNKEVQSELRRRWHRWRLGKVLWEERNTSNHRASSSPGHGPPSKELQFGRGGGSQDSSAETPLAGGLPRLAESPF
In short: as §1

trypsin = format: in vitro ADME
Description: (§2) For the stability against trypsin, the test samples were prepared by mixing stock solutions of peptide and trypsin dissolved in 50 mM PBS (pH 7.8) containing 0.02% PS80 in a weight ratio of 10:1. The test samples were incubated at 37° C. for 180 min. The sampling from test samples was proceeded at the predetermined time points (10, 30, 60, 90, 120, and 180 min) and stopped by 10% TFA solution.
(§3) Analytical HPLC was performed to determine the remaining amount on an ACQUITY Premier system (Waters, USA) with an ACQUITY CSH C18 column (Waters, USA) at 35° C. using 0.1% TFA in water and acetonitrile. The remaining amount was determined as a percentage of the peak area at the sampling time point relative to the peak area of the initial sample.

[4] = format: in vitro ADME; conditions: pH 7.8
Description: as §2, §3

[5] = molecular target: human glucose-dependent insulinotropic polypeptide receptor (GIPR), expressed on CHO-K1 cells (human) (UniProt P48546); assay: cell-based or functional assay
[6] = molecular target: human glucose-dependent insulinotropic polypeptide receptor (GIPR), expressed on CHO-K1 cells (human) (UniProt P48546); assay: cell-based or functional assay; remark: listed apart in the source

Compound | half-life [2] [h] | activity on GLP-1R compared to SEQ ID NO. 77, in words (human GLP-1R) | Ratio vs. GLP-1R, GLP-1R (human GLP-1R) | Relative % to native ligand, GLP-1R (human GLP-1R) [%] | activity on GIPR compared to SEQ ID NO. 77, in words (human GIPR) | Ratio vs. GLP-1R, GIPR (human GIPR) | Relative % to native ligand, GIPR (human GIPR) [%] | Ratio vs. GLP-1R, GCGR (human GCGR) | Relative % to native ligand, GCGR (human GCGR) [%] | stability against trypsin compared with SEQ ID NO. 77, in words (trypsin) | half-life [4] [h] | also measured
CSCC[C@H](NC(=O)[C@H](Cc1ccc(O)cc1)NC(=O)[C@H](CC(=O)O)NC(=O)[C@H](CC(C)C)NC(=O)[C@H](CC(C)C)NC(=O)[C@H](CCCCNC(=O)COCCOCCNC(=O)COCCOCCNC(=O)CC[C@H](NC(=O)CCCCCCCCCCCCCCCCC(=O)O)C(=O)O)NC(=O)[C@H](CO)NC(=O)[C@H](Cc1ccc(O)cc1)NC(=O)[C@H](CC(=O)O)NC(=O)[C@H](CO)NC(=O)[C@@H](NC(=O)[C@H](Cc1ccccc1)NC(=O)[C@@H](NC(=O)CNC(=O)[C@H](CCC(N)=O)NC(=O)C(C)(C)NC(=O)[C@@H](N)Cc1ccc(O)cc1)[C@@H](C)O)[C@@H](C)O)C(=O)N[C@@H](CCSC)C(=O)N[C@@H](CCC(N)=O)C(=O)N[C@@](C)(CCCNC(=N)N)C(=O)N[C@@H](CC(=O)O)C(=O)N[C@@H](Cc1ccccc1)C(=O)N[C@H](C(=O)N[C@@H](CCC(N)=O)C(=O)N[C@@H](Cc1c[nH]c2ccccc12)C(=O)N[C@@H](CC(C)C)C(=O)N[C@@H](CC(C)C)C(=O)N[C@@H](CCC(=O)O)C(=O)NCC(=O)NCC(=O)N1CCC[C@H]1C(=O)N[C@@H](CO)C(=O)N[C@@H](CO)C(=O)NCC(=O)N[C@@H](C)C(=O)N1CCC[C@H]1C(=O)N1CCC[C@H]1C(=O)N1CCC[C@H]1C(=O)N[C@@H](CO)C(N)=O)C(C)C [compound 101] (H-Y[Aib]QGTFTSDYSK([AEEA-AEEA-γGlu-C18 diacid])LLDYMMQ[αMeR]DFVQWLLEGGPSSGAPPPS-NH2; N-terminus assumed) | 1.18 | increased | 100 | 722 | increased | 65 | 472 | 12 | 89 | improved stability | > 7.23 | efficacy in the NASH model, in words [1]: most excellent efficacy; hepatic steatosis score compared to CDA-HFD control, in words [1]: significantly reduced; scores of hepatocytes inflammation and NAS score, in words [1]: statistically reduced; also recorded: most decreased; body weight compared to vehicle-treated control, in words ([1]; 20 nmol/kg s.c. Q2D, 4 weeks): reduce body weight; also recorded: greatest weight loss; liver enzymes and liver steatosis compared to vehicle-treated control, in words ([1]; end of treatment): reduce liver enzymes and liver steatosis significantly; stability against FaSSIF/P compared with SEQ ID NO. 77, in words (FaSSIF/P): improved stability; NAS score, in words [3]: statistically decreased more than the level of tirzepatide; hepatic steatosis (histological score), in words [3]: significantly reduced; liver weight, visceral fat weight, liver enzymes, and liver steatosis compared to vehicle-treated control, in words [3]: significantly reduced
CSCC[C@H](NC(=O)[C@H](Cc1ccc(O)cc1)NC(=O)[C@H](CC(=O)O)NC(=O)[C@H](CC(C)C)NC(=O)[C@H](CC(C)C)NC(=O)[C@H](CCCCNC(=O)COCCOCCNC(=O)COCCOCCNC(=O)CC[C@H](NC(=O)CCCCCCCCCCCCCCCCC(=O)O)C(=O)O)NC(=O)[C@H](CO)NC(=O)[C@H](Cc1ccc(O)cc1)NC(=O)[C@H](CC(=O)O)NC(=O)[C@H](CO)NC(=O)[C@@H](NC(=O)[C@H](Cc1ccccc1)NC(=O)[C@@H](NC(=O)CNC(=O)[C@H](CCC(N)=O)NC(=O)C(C)(C)NC(=O)[C@@H](N)Cc1ccc(O)cc1)[C@@H](C)O)[C@@H](C)O)C(=O)N[C@@H](CCSC)C(=O)N[C@@H](CCC(N)=O)C(=O)N[C@@H](CCC(N)=O)C(=O)N[C@@H](CC(=O)O)C(=O)N[C@@H](Cc1ccccc1)C(=O)N[C@H](C(=O)N[C@@H](CCC(N)=O)C(=O)N[C@@H](Cc1c[nH]c2ccccc12)C(=O)N[C@@H](CC(C)C)C(=O)N[C@@H](CC(C)C)C(=O)N[C@@H](CCC(=O)O)C(=O)NCC(=O)NCC(=O)N1CCC[C@H]1C(=O)N[C@@H](CO)C(=O)N[C@@H](CO)C(=O)NCC(=O)N[C@@H](C)C(=O)N1CCC[C@H]1C(=O)N1CCC[C@H]1C(=O)N1CCC[C@H]1C(=O)N[C@@H](CO)C(N)=O)C(C)C [compound 100] (H-Y[Aib]QGTFTSDYSK([AEEA-AEEA-γGlu-C18 diacid])LLDYMMQQDFVQWLLEGGPSSGAPPPS-NH2; N-terminus assumed) | 0.753 | decreased | 100 | 54 | decreased | 103 | 55 | 56 | 30 | increased half-lives | > 7.23 | –
CSCC[C@H](NC(=O)[C@H](Cc1ccc(O)cc1)NC(=O)[C@H](CC(=O)O)NC(=O)[C@H](CC(C)C)NC(=O)[C@H](CC(C)C)NC(=O)[C@H](CCCCNC(=O)COCCOCCNC(=O)COCCOCCNC(=O)CC[C@H](NC(=O)CCCCCCCCCCCCCCCCC(=O)O)C(=O)O)NC(=O)[C@H](CO)NC(=O)[C@H](Cc1ccc(O)cc1)NC(=O)[C@H](CC(=O)O)NC(=O)[C@H](CO)NC(=O)[C@@H](NC(=O)[C@H](Cc1ccccc1)NC(=O)[C@@H](NC(=O)CNC(=O)[C@H](CCC(N)=O)NC(=O)C(C)(C)NC(=O)[C@@H](N)Cc1ccc(O)cc1)[C@@H](C)O)[C@@H](C)O)C(=O)N[C@@H](CCSC)C(=O)N[C@@H](CCC(N)=O)C(=O)N[C@@H](Cc1c[nH]cn1)C(=O)N[C@@H](CC(=O)O)C(=O)N[C@@H](Cc1ccccc1)C(=O)N[C@H](C(=O)N[C@@H](CCC(N)=O)C(=O)N[C@@H](Cc1c[nH]c2ccccc12)C(=O)N[C@@H](CC(C)C)C(=O)N[C@@H](CC(C)C)C(=O)N[C@@H](CCC(=O)O)C(=O)NCC(=O)NCC(=O)N1CCC[C@H]1C(=O)N[C@@H](CO)C(=O)N[C@@H](CO)C(=O)NCC(=O)N[C@@H](C)C(=O)N1CCC[C@H]1C(=O)N1CCC[C@H]1C(=O)N1CCC[C@H]1C(=O)N[C@@H](CO)C(N)=O)C(C)C [compound 99] (H-Y[Aib]QGTFTSDYSK([AEEA-AEEA-γGlu-C18 diacid])LLDYMMQHDFVQWLLEGGPSSGAPPPS-NH2; N-terminus assumed) | 0.632 | slightly decreased | 100 | 35 | – | 3237 | 1132 | 80 | 28 | increased half-lives | > 7.23 | –
GIP (native ligand) (from UniProt P09681 52-93) | – | – | – | – | – | – | – | – | – | – | – | EC50 (nM), cAMP assay [5]: 0.732 nM; EC50, c-AMP release (FIG. 8C) [5]: 240 pM; EC50, c-AMP release (FIG. 9C) [5]: 240 pM; EC50, cAMP release (FIG. 7C) [5]: 1780 pM; Percentage change in EC50 relative to GIP at human GIPR (%) [5]: 100%; EC50 (nM), cAMP assay [6]: 2.03 nM
